Holding throughout (experiment): NCI tumour cell line growth inhibition, 48 h
Assay [1] deals with DLD-1 colon.
The test system of assay [2] is DMS 273 small cell lung.
Assay [3] deals with KM20L2 colon.
The subject of assay [4] is LXFL 529 NSCLC.
The test system of assay [5] is MALME-3M melanoma.
The test system of assay [6] is DMS 114 small cell lung.
For assay [7], the system named is SNB-19 CNS.
Assay [8] has as its system RXF 393 renal.
The test system of assay [9] is EKVX NSCLC.
The subject of assay [10] is XF 498 CNS.
Assay [11] relates to 786-0 renal.
Assay [12] has as its system SF-539 CNS.
The test system of assay [13] is M19-MEL melanoma.
Assay [14] deals with MDA-N.
The subject of assay [15] is T-47D breast.
Assay [16] has as its system HS 578T breast.
Assay [17] has as its system BT-549 breast.
For assay [18], the system named is HOP-18 NSCLC.
For assay [19], the system named is SNB-78 CNS.

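Interpolation was linear, between the two tested concentrations surrounding the appropriate level; five concentrations were tested over 48 hours in 96-well plates. The concentration for full growth arrest is given as TGI.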

As to `CCC(=O)CCC1=Nc2nnc(CCCCc3nnc4n3C(=O)C(CCC(=O)CC)=N4)n2C1=O`, the TGI in assay [1], in assay [2], in assay [3], in assay [4], in assay [5] and in assay [6] was above 100 µM throughout. For the same compound, the TGI in assay [7], in assay [8], in [9], in assay [10], in assay [11] and in assay [12] was above 100 µM each time. The TGI in assay [13] is above 100 µM.

Regarding `CCOC(=O)CCc1ccc(NC(=O)/C=C/c2ccc([N+](=O)[O-])o2)cc1`, the TGI is 2.95 µM in assay [14]; 3.14 µM in [5]; above 71.6 µM in assay [7]; 40.8 µM in assay [15]; 2.75 µM in [8]; above 100 µM in assay [9]. The TGI in assay [16] was above 100 µM; in [11] it was 1.72 µM; in [12], 3.99 µM; in assay [17], 4.79 µM.

As for `Cn1c(N)c(/C=C/C(=O)Oc2ccccc2)c(=O)n(C)c1=O`, the TGI in [14], in assay [5], in [7], in assay [15], in [8] and in assay [9] was above 100 µM each time. Further, the TGI in assay [16], in assay [11], in [12] and in [17] was above 100 µM in each case.

In the case of `N#Cc1c(N)c2c(c(-c3ccccc3)c1-c1ccccc1)C(=O)N(O)C2=O`, the TGI in [14] is above 100 µM; in assay [5], above 100 µM; in assay [7], above 100 µM; in [15], 73.9 µM; in assay [8], 44.3 µM; in [9], above 100 µM. Besides, the TGI was 99.6 µM in assay [16], above 100 µM in assay [11], above 100 µM in assay [12] and above 100 µM in assay [17].

On to `CCc1cccc(NC(=O)c2cc(/C=C/c3ccccc3)[nH]c(=S)n2)c1`, for which the TGI in assay [2], in assay [3], in assay [4], in assay [18], in assay [5] and in [6] was above 100 µM throughout. The TGI in assay [7], in assay [8], in assay [9], in [11], in [19] and in assay [12] was above 100 µM in each case. In addition, the TGI in assay [13] is above 100 µM.

As to `Cc1ccc(S(=O)(=O)NNC(=O)Nc2ccc([N+](=O)[O-])cc2)cc1`, the TGI in [14] was above 100 µM; in assay [5], above 100 µM; in assay [7], above 100 µM; in assay [15], 28.9 µM; in [8] it was above 100 µM; in [9], above 100 µM. For the same compound, the TGI is above 100 µM in assay [16], 64.6 µM in [11], above 100 µM in assay [12] and above 100 µM in [17].

Consider `CC(=O)OC(C)c1cc2c(s1)C(=O)c1ccsc1C2=O` (stereo unspecified), for which the TGI was 0.0544 µM in assay [14]; 0.246 µM in [5]; 0.317 µM in assay [7]; 1.79 µM in assay [15]; 0.496 µM in assay [8]; 2.74 µM in assay [9]. Besides, the TGI in assay [16] amounted to 0.422 µM; in assay [11], 0.978 µM; in assay [12], 0.182 µM; in assay [17] it was 0.347 µM.

As for `Cc1nn(C(=O)c2ccc(Cl)cc2)c2c1C(c1ccc(Cl)cc1)SC(N)=N2` (stereo unspecified), the TGI in assay [14], in assay [5], in assay [7], in [15], in assay [8] and in [9] was above 10 µM each time. For the same compound, the TGI in assay [16], in assay [11], in assay [12] and in assay [17] was above 10 µM each time.

Turning to `O=C(O)CCSC(=O)Nc1ccccc1`, the TGI in [1], in assay [2], in [3], in [4], in [7] and in [8] was above 100 µM each time. Besides, the TGI in assay [9], in assay [11], in [19] and in assay [12] was above 100 µM in each case.

With `C1=Cc2cccc3occ(c23)C=C1`, the TGI is above 100 µM in assay [14]; above 100 µM in assay [5]; above 100 µM in assay [7]; above 100 µM in [15]; 88.3 µM in [8]; above 100 µM in assay [9]. Besides, the TGI in assay [16], in assay [11], in assay [12] and in assay [17] was above 100 µM in each case.

As to `CC1=NNC(=O)C1C1C=C(c2c[nH]c3ccccc23)OC1=O` (stereo unspecified), the TGI in assay [14], in assay [5], in assay [7], in assay [15], in assay [8] and in assay [9] was above 100 µM throughout. In addition, the TGI in assay [16], in [11], in [12] and in assay [17] was above 100 µM throughout.

`CCOC(=O)C1=NNC(C(=O)c2ccccc2)C1c1ccccc1` (stereo unspecified): the TGI was 3.98 µM in assay [14]; 4.77 µM in [5]; 27.8 µM in [7]; 29.3 µM in assay [15]; 3.78 µM in [8]; 36.6 µM in [9]. In addition, the TGI in [16] was 20.5 µM; in [11] it was 6.3 µM; in [12], 4.76 µM; in assay [17], 4.37 µM.

The record behind these values is PubChem BioAssay (NCI).
